How the values were obtained:
human calpain I = target: T1, human calpain I (Homo sapiens, UniProt P07384); assay: Effects on human calpain I (acellular, Suc-Leu-Tyr-AMC fluorescence); type: biochemical; details: enzyme purified from human erythrocytes; 1 h at 25°C; read-out: Inhibition human calpain I, acellular [IC50 (nM)]
T1 construct: enzyme purified from human erythrocytes; purchased Calbiochem 208713; host or cells: human erythrocytes (native tissue source)
T1 sequence (P07384 1-714): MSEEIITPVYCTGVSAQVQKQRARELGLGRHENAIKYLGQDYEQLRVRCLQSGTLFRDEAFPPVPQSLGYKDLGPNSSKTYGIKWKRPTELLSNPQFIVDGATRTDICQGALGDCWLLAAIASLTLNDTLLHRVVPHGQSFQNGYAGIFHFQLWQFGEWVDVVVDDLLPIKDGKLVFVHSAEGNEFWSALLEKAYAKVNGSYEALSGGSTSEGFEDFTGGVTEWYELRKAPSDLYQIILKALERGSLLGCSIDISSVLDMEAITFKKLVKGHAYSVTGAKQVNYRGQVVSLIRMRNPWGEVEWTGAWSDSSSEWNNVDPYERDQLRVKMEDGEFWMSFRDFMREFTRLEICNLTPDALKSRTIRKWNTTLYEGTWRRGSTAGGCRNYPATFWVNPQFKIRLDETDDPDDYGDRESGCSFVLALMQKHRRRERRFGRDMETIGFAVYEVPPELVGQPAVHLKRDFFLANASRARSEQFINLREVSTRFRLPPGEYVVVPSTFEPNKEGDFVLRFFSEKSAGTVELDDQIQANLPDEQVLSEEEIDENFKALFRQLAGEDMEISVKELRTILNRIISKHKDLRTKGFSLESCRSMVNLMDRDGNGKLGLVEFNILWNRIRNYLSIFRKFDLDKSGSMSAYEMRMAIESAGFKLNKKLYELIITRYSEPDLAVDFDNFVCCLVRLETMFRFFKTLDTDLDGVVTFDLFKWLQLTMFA
T1 sequence (P04632 1-268 partner): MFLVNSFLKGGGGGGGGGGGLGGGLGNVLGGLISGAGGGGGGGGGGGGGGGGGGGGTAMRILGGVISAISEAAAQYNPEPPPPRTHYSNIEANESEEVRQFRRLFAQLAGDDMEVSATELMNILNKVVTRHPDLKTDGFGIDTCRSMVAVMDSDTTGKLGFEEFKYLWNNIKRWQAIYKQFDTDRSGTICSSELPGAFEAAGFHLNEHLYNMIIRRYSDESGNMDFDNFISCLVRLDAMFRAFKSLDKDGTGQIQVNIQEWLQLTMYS
Description: The test consists of measuring the activity of the enzyme (enzyme purified from human erythrocytes) which is incubated in a buffer in the presence of a peptide substrate coupled with a fluorochrome (amino-methylcourmarin, AMC) and calcium. The enzyme activated by the calcium, proteolyses the substrate and releases the AMC fragment. The AMC released fluoresces at 460 nm under excitation at 380 nm. The activity of the enzyme is therefore proportional to the quantity of fluorescence i.e. of free AMC fragment. The fluorescence (380/460 nm) is measured using a multi-well fluorimeter (Victor 2, Wallac).
Assay is carried out in 96-well microplates with transparent bottoms and black walls in which 10 μl per well of substance to be tested in DMSO 10%, 45 μl of reaction mixture containing the human calpain I at 2.2 U/ml (Calbiochem, ref: 208713), the Suc Leu Tyr-AMC substrate (Bachem, ref: I-1355) at 1.1 mM in a buffer (Tris-HCl 110 mM; NaCl 110 mM; EDTA 2.2 mM; EGTA 2.2 mM; mercaptoethanol 1.1 mM) are distributed. The reaction is initiated by adding 45 μl of CaCl2 22mM. To determine the background noise, control wells without calcium are added to the plate (10 μL DMSO 10%+45 μL of buffer with the enzyme and the susbtrate +45 μL H2O). In order to determine the total activity of the enzyme control wells containing no product are added to the plate (10 μL DMSO 10%+45 μL of buffer with the enzyme and the substrate +45 μL of CaCl2 22 mM ). Each concentration of the products (0.1 nM to 10 μM) is tested in duplicate. The plates are shaken and incubation takes place for one hour at 25° C. in darkness. The fluorescence is read at 380/460 nm using the Victor.

[1] = tested on: human neuroblastomas SHSY5Y; assay: Protection from necrosis induced by maitotoxin, SHSY5Y (wst-1 viability); type: cell-based; details: for Protection from necrosis induced by MTX: SHSY5Y, n=2, 0.1 nM maitotoxin; for Protection from necrosis induced by MTX on SHSY5Y: n = 8, single product at 100 μM
Description: Human neuroblastomas SHSY5Y and rat glial cells C6 are seeded at 25 000 cells per well in 96-well plates in DMEM 10% FBS for 24 hours. The L6 rat myoblasts are seeded at 1000 cells per well in DMEM 10% FBS on 96-well microplates coated beforehand with gelatin 0.5% PBS. After culture for 3 days the medium is removed and replaced with a differentiation medium (DMEM+10 μg/ml of insulin+100 μg/ml of transferrin). 50 μl of product A plus 50 μl of solvent or 50 μl of product B are placed in the wells. After incubation for 1 hour at 37° C. under an atmosphere of 5% CO2, 10 μl of maitotoxin is added in order to obtain a final concentration of 0.1 nM to 1 nM (according to the cell type). After incubation for 3 hours at 37° C. under an atmosphere of 5% CO2, the cell viability is determined by adding 10 μl of tetrazolium salts (wst-1, Roche, ref: 1644807). The tetrazolium salts are cleaved into formazan molecules by mitochondrial dehydrogenases. The quantity of formazan formed is directly correlated to the number of metabolically active cells in the culture. Measurement of the absorbance of the formazan is carried out using a multiwell photometer at a wavelength of 420 nm against a reference wavelength of 620 nm.
The theoretical effect was obtained by multiplying the percentage of dead cells in the presence of product A by the percentage of dead cells in the presence of product B (Table 3). The percentage protection against cell death induced by MTX being the percentage of cells kept alive in the presence of the product or products.
In a first series of experiments, the concentration of product A in Example 1 is fixed (100 μM), product B is added at concentrations varying from zero to 100 μM (Table 4A). In a second series of experiments, product B of Example 1 is fixed at 100 μM, product A is added at concentrations varying from zero to 100 μM (Table 4B).

For `CC(C)C[C@@H](C=O)NC(=O)[C@H](CC(C)C)NC(=O)OCc1ccccc1` [EXAMPLE 1 B, benzyl (1S)-1-({[(1S)-1-formyl-3-methylbutyl]amino}carbonyl)-3-methylbutylcarbamate], the IC50 (human calpain I) was 6 nM, the “Protection from necrosis induced by MTX” value ([1]; single compound at 12.5 μM) was 6.89 ± 1.51% and the “Protection from necrosis induced by MTX” value ([1]; single compound at 25 μM) was 6.94 ± 0.2%. For the same molecule, the “Protection from necrosis induced by MTX” value ([1]; single compound at 50 μM) was 9.01 ± 0.83%, the “Protection from necrosis induced by MTX” value ([1]; single compound at 100 μM) was 17.52 ± 2.69% and the “Protection from necrosis induced by MTX on SHSY5Y” value [1] was 12.87 ± 3.72%. The “Protection from necrosis induced by MTX on SHSY5Y” value ([1]; listed as Z-Leu-Leu-H) was “not active”.

Reference: US20070265208A1, “Association of calpain inhibitors and reactive oxygen species trapping agents” (priority 2000, published 2007)
